Laboratory results taken from ChEMBL document CHEMBL3822364, “Synthesis, characterization and antimicrobial activity of novel Schiff base tethered boronate esters of 1,2-O-isopropylidene-α-d-xylofuranose” (2016).
Converted amounts (≈) assume the structure as drawn. The source made the active and inactive calls. No cut-off for these calls is given here.

How the values were obtained:
Staphylococcus aureus [1] = assay: Antibacterial activity against Staphylococcus aureus MTCC 3160 assessed as zone of inhibition at 100 ug/well measured after 24 hrs by agar well diffusion method; type: functional; details: MTCC 3160, 24 h, read-out: DIZ
Salmonella paratyphi [2] = assay: Antibacterial activity against Salmonella paratyphi assessed as zone of inhibition at 100 ug/well measured after 24 hrs by agar well diffusion method; type: functional, Salmonella enterica subsp. enterica serovar Paratyphi A; details: Salmonella enterica, read-out: DIZ
Staphylococcus aureus [3] = assay: Antibacterial activity against Staphylococcus aureus MTCC 3160 measured after 24 hrs by NCCL protocol based broth dilution method; type: functional
Candida albicans [4] = assay: Antifungal activity against Candida albicans MTCC 3017 assessed as zone of inhibition at 100 ug/well measured after 48 hrs by agar well diffusion method; type: functional; details: MTCC 3017, 48 h, read-out: DIZ
Klebsiella pneumoniae [5] = assay: Antibacterial activity against Klebsiella pneumoniae MTCC 3384 measured after 24 hrs by NCCL protocol based broth dilution method; type: functional
Streptococcus mutans [6] = assay: Antibacterial activity against Streptococcus mutans MTCC 497 assessed as zone of inhibition at 100 ug/well measured after 24 hrs by agar well diffusion method; type: functional; details: MTCC 497, 24 h, read-out: DIZ
Micrococcus luteus [7] = assay: Antibacterial activity against Micrococcus luteus MTCC 106 assessed as zone of inhibition at 100 ug/well measured after 24 hrs by agar well diffusion method; type: functional; details: MTCC 106, 24 h, read-out: DIZ
Salmonella paratyphi [8] = assay: Antibacterial activity against Salmonella paratyphi measured after 24 hrs by NCCL protocol based broth dilution method; type: functional, Salmonella enterica subsp. enterica serovar Paratyphi A
Salmonella typhi [9] = assay: Antibacterial activity against Salmonella typhi measured after 24 hrs by NCCL protocol based broth dilution method; type: functional, Salmonella enterica subsp. enterica serovar Typhi
Aspergillus fumigatus [10] = assay: Antifungal activity against Aspergillus fumigatus MTCC 343 measured after 48 hrs by NCCL protocol based broth dilution method; type: functional
Salmonella typhi [11] = assay: Antibacterial activity against Salmonella typhi assessed as zone of inhibition at 100 ug/well measured after 24 hrs by agar well diffusion method; type: functional, Salmonella enterica subsp. enterica serovar Typhi; details: Salmonella enterica, read-out: DIZ
Micrococcus luteus [12] = assay: Antibacterial activity against Micrococcus luteus MTCC 106 measured after 24 hrs by NCCL protocol based broth dilution method; type: functional
Streptococcus mutans [13] = assay: Antibacterial activity against Streptococcus mutans MTCC 497 measured after 24 hrs by NCCL protocol based broth dilution method; type: functional
Klebsiella pneumoniae [14] = assay: Antibacterial activity against Klebsiella pneumoniae MTCC 3384 assessed as zone of inhibition at 100 ug/well measured after 24 hrs by agar well diffusion method; type: functional; details: MTCC 3384, 24 h, read-out: DIZ
Aspergillus fumigatus [15] = assay: Antifungal activity against Aspergillus fumigatus MTCC 343 assessed as zone of inhibition at 100 ug/well measured after 48 hrs by agar well diffusion method; type: functional; details: MTCC 343, 48 h, read-out: DIZ
Candida albicans [16] = assay: Antifungal activity against Candida albicans MTCC 3017 measured after 48 hrs by NCCL protocol based broth dilution method; type: functional
[17] = Salmonella enterica subsp. enterica serovar Paratyphi A
[18] = Salmonella enterica subsp. enterica serovar Typhi

SMILES | zone of inhibition at 100 µg/disc (Staphylococcus aureus [1]) [mm] | zone of inhibition at 100 µg/disc (Salmonella paratyphi [2]) [mm] | MIC (Staphylococcus aureus [3]; MTCC 3160, 24 h) [mg/L] | zone of inhibition at 100 µg/disc (Candida albicans [4]) [mm] | MIC (Klebsiella pneumoniae [5]; MTCC 3384, 24 h) [mg/L] | zone of inhibition at 100 µg/disc (Streptococcus mutans [6]) [mm] | zone of inhibition at 100 µg/disc (Micrococcus luteus [7]) [mm] | MIC (Salmonella paratyphi [8]; Salmonella enterica) [mg/L] | MIC (Salmonella typhi [9]; Salmonella enterica) [mg/L] | MIC (Aspergillus fumigatus [10]; MTCC 343, 48 h) [mg/L] | zone of inhibition at 100 µg/disc (Salmonella typhi [11]) [mm] | MIC (Micrococcus luteus [12]; MTCC 106, 24 h) [mg/L] | MIC (Streptococcus mutans [13]; MTCC 497, 24 h) [mg/L] | zone of inhibition at 100 µg/disc (Klebsiella pneumoniae [14]) [mm] | zone of inhibition at 100 µg/disc (Aspergillus fumigatus [15]) [mm] | MIC (Candida albicans [16]; MTCC 3017, 48 h) [mg/L] | MIC (Klebsiella pneumoniae [5]) | MIC (Salmonella paratyphi [8]; [17]) | MIC (Salmonella typhi [9]; [18]) | MIC (Aspergillus fumigatus [10]) | further results
CC1(C)O[C@H]2O[C@@H]3COB(c4ccc(/C=N/c5ccccc5)cc4)O[C@@H]3[C@H]2O1 | 16 | 0 | 125 (≈ 330 µM) | 11 | 62.5 (≈ 165 µM) | 21 | 14 | 500 (≈ 1320 µM) | 62.5 (≈ 165 µM) | 500 (≈ 1320 µM) | 20 | 250 (≈ 659 µM) | 62.5 (≈ 165 µM) | 21 | 0 | 125 (≈ 330 µM) | – | – | – | – | –
CC1(C)O[C@H]2O[C@@H]3COB(c4ccc(/C=N/c5ccc(F)cc5)cc4)O[C@@H]3[C@H]2O1 | 18 | 22 | 62.5 (≈ 157 µM) | 16 | 31.2 (≈ 78.7 µM) | 21 | 15 | 31.2 (≈ 78.7 µM) | 62.5 (≈ 157 µM) | 250 (≈ 629 µM) | 20 | 62.5 (≈ 157 µM) | 31.2 (≈ 78.7 µM) | 21 | 0 | 125 (≈ 315 µM) | – | – | – | – | –
CC1(C)O[C@H]2O[C@@H]3COC(c4cccc(/C=N/c5ccc(F)cc5)c4)O[C@@H]3[C@H]2O1 (stereo not given in full) | 7 | 0 | 500 (≈ 1250 µM) | 6 | – | 6 | 0 | – | – | – | 0 | 500 (≈ 1250 µM) | 250 (≈ 626 µM) | 0 | 0 | 500 (≈ 1250 µM) | inactive | inactive | inactive | inactive | –
O=[N+]([O-])c1ccc(O)c(/C=N/c2cccc(B(O)O)c2)c1 | 8 | 0 | 500 (≈ 1750 µM) | 0 | 500 (≈ 1750 µM) | 9 | 0 | 500 (≈ 1750 µM) | 500 (≈ 1750 µM) | 500 (≈ 1750 µM) | 11 | 250 (≈ 874 µM) | 125 (≈ 437 µM) | 0 | 0 | 500 (≈ 1750 µM) | – | – | – | – | –
CC1(C)O[C@H]2O[C@@H]3COC(c4ccc(C=O)cc4)O[C@@H]3[C@H]2O1 (stereo not given in full) | 0 | 0 | – | 0 | – | 0 | 0 | – | – | – | 0 | – | – | 0 | 0 | – | inactive | inactive | inactive | inactive | MIC (Staphylococcus aureus [3]): inactive; MIC (Micrococcus luteus [12]): inactive; MIC (Streptococcus mutans [13]): inactive; MIC (Candida albicans [16]): inactive
